# Measured values from US11090364B2, “Conjugates of a pharmaceutical agent and a moiety capable of binding to a glucose sensing protein” (SANOFI, priority 2016, dated 2021).
# Test system: HepG2 cells
# Test: HepG2 assay: 14C 2-deoxy-D-glucose transport into HepG2 cells
# Assay type: cell-based
# Details: Homo sapiens, test compound 100 μM
# Protocol: For measurement of ^14C 2-deoxy-D-glucose transport into HepG2 cells, cells were seeded in collagen treated 96-well plates (Cytostar-T Plates Perkin Elmer, 40.000 cells/200 μ/well) in medium complete (MEM W/GLUT-I, EARLES (Gibco #41090) /NEAA/PS/10% FCS) and grown for 48 hours. After starvation for 2 hours with MEM W/GLUT-I, EARLES (Gibco #41090)/NEAA/no serum 100 μl/well and washing twice with 200 μL KRB buffer, cells were stimulated in a dose dependent manner by adding 20 μL of test compound dilution 0-750 μM (7.5 times higher concentration than final) or 20 μL of 188 μM Cytochalasin B solution as negative control, to 80 μL KRB buffer and incubated for 30 minutes. After compound stimulation, the transport of ^14C 2-deoxy-D-glucose was started by adding of 50 μL ^14C 2-deoxy-D-glucose solution (250 μM 2-deoxy-D-glucose cold and 15 μM ^14C 2-deoxy-D-glucose 0.13 μCi/well) for 20 minutes. Transport was stopped by adding 50 μL/well 40 μM Cytochalasin B solution. Plates were measured in a 96-well Wallac Microbeta device. The cpm (counts per minute) values were used to determine the % inhibition values for the test compounds within each experiment, which then are averaged over the number of experiments performed.
row,SMILES,inhibition at 100 µM
1,"CC(=O)O[C@@H]1O[C@H](C(=O)N2CCN(C)CC2)[C@@H](OC(C)=O)[C@H](OC(C)=O)[C@H]1OC(C)=O [Example 1, [(2S,3R,4S,5S,6S)-2,3,5-Triacetoxy-6-(4-methylpiperazine-1-carbonyl)tetrahydropyran-4-yl] acetate]",6.32%
2,"CCN1CCN(C(=O)[C@H]2O[C@@H](OC(C)=O)[C@H](OC(C)=O)[C@@H](OC(C)=O)[C@@H]2OC(C)=O)CC1 [Example 2, [(2S,3R,4S,5S,6S)-2,3,5-Triacetoxy-6-(4-ethylpiperazine-1-carbonyl)tetrahydropyran-4-yl] acetate]",6.5%
3,"CC(=O)O[C@@H]1O[C@H](C(=O)N2CCN(C(C)C)CC2)[C@@H](OC(C)=O)[C@H](OC(C)=O)[C@H]1OC(C)=O [Example 6, [(2S,3R,4S,5S,6S)-2,3,5-Triacetoxy-6-(4-isopropylpiperazine-1-carbonyl)tetrahydropyran-4-yl] acetate]",7.75%
4,"CC(=O)O[C@@H]1O[C@H](C(=O)N2CCN(C(C)(C)C)CC2)[C@@H](OC(C)=O)[C@H](OC(C)=O)[C@H]1OC(C)=O [Example 7, [(2S,3R,4S,5S,6S)-2,3,5-Triacetoxy-6-(4-tert-butylpiperazine-1-carbonyl)tetrahydropyran-4-yl] acetate]",6.99%
5,"C=CCN1CCN(C(=O)[C@H]2O[C@@H](OC(C)=O)[C@H](OC(C)=O)[C@@H](OC(C)=O)[C@@H]2OC(C)=O)CC1 [Example 8, [(2S,3R,4S,5S,6S)-2,3,5-Triacetoxy-6-(4-allylpiperazine-1-carbonyl)tetrahydropyran-4-yl] acetate]",7.67%
6,"CC(=O)O[C@@H]1O[C@H](C(=O)N2CCN(C3CCCCC3)CC2)[C@@H](OC(C)=O)[C@H](OC(C)=O)[C@H]1OC(C)=O [Example 9, [(2S,3R,4S,5S,6S)-2,3,5-Triacetoxy-6-(4-cyclohexylpiperazine-1-carbonyl)tetrahydropyran-4-yl] acetate]",5.11%
7,"CC(=O)O[C@@H]1O[C@H](C(=O)N2CCN(c3ccccc3)CC2)[C@@H](OC(C)=O)[C@H](OC(C)=O)[C@H]1OC(C)=O [Example 12, [(2S,3R,4S,5S,6S)-2,3,5-Triacetoxy-6-(4-phenylpiperazine-1-carbonyl)tetrahydropyran-4-yl] acetate]",5.43%
8,"CC(=O)O[C@@H]1O[C@H](C(=O)N2CCN(c3ccc(Cl)cc3)CC2)[C@@H](OC(C)=O)[C@H](OC(C)=O)[C@H]1OC(C)=O [Example 14, [(2S,3R,4S,5S,6S)-2,3,5-Triacetoxy-6-[4-(4-chlorophenyl)piperazine-1-carbonyl]tetrahydropyran-4-yl] acetate]",5.67%
9,"COc1ccccc1N1CCN(C(=O)[C@H]2O[C@@H](OC(C)=O)[C@H](OC(C)=O)[C@@H](OC(C)=O)[C@@H]2OC(C)=O)CC1 [Example 19, [(2S,3R,4S,5S,6S)-2,3,5-Triacetoxy-6-[4-(2-methoxyphenyl)piperazine-1-carbonyl]tetrahydropyran-4-yl] acetate]",6.89%
10,"CN1CCN(C(=O)[C@H]2OC(O)[C@H](O)[C@@H](O)[C@@H]2O)CC1 (stereo partly drawn) [Example 21, (4-Methylpiperazin-1-yl)-[(2S,3S,4S,5R)-3,4,5,6-tetrahydroxytetrahydropyran-2-yl]methanone]",7.53%
11,"CCN1CCN(C(=O)[C@H]2OC(O)[C@H](O)[C@@H](O)[C@@H]2O)CC1 (stereo partly drawn) [Example 22, (4-Ethylpiperazin-1-yl)-[(2S,3S,4S,5R)-3,4,5,6-tetrahydroxytetrahydropyran-2-yl]methanone]",11.4%
12,"CC(C)(C)N1CCN(C(=O)[C@H]2OC(O)[C@H](O)[C@@H](O)[C@@H]2O)CC1 (stereo partly drawn) [Example 27, (4-tert-Butylpiperazin-1-yl)-[(2S,3S,4S,5R)-3,4,5,6-tetrahydroxytetrahydropyran-2-yl]methanone]",13.1%
13,"C=CCN1CCN(C(=O)[C@H]2OC(O)[C@H](O)[C@@H](O)[C@@H]2O)CC1 (stereo partly drawn) [Example 28, (4-Allylpiperazin-1-yl)-[(2S,3S,4S,5R)-3,4,5,6-tetrahydroxytetrahydropyran-2-yl]methanone]",9.95%
14,"O=C([C@H]1OC(O)[C@H](O)[C@@H](O)[C@@H]1O)N1CCN(C2CCCCC2)CC1 (stereo partly drawn) [Example 29, (4-Cyclohexylpiperazin-1-yl)-[(2S,3S,4S,5R)-3,4,5,6-tetrahydroxytetrahydropyran-2-yl]methanone]",18.4%
15,"O=C([C@H]1OC(O)[C@H](O)[C@@H](O)[C@@H]1O)N1CCN(c2ccc(Cl)cc2)CC1 (stereo partly drawn) [Example 34, [4-(4-Chlorophenyl)piperazin-1-yl]-[(2S,3S,4S,5R)-3,4,5,6-tetrahydroxytetrahydropyran-2-yl]methanone]",20.5%
16,"O=C([C@H]1OC(O)[C@H](O)[C@@H](O)[C@@H]1O)N1CCN(c2ccc(Br)cc2)CC1 (stereo partly drawn) [Example 36, [4-(4-Bromophenyl)piperazin-1-yl]-[(2S,3S,4S,5R)-3,4,5,6-tetrahydroxytetrahydropyran-2-yl]methanone]",20.6%
17,"COc1ccc(N2CCN(C(=O)[C@H]3OC(O)[C@H](O)[C@@H](O)[C@@H]3O)CC2)cc1 (stereo partly drawn) [Example 37, [4-(4-Methoxyphenyl)piperazin-1-yl]-[(2S,3S,4S,5R)-3,4,5,6-tetrahydroxytetrahydropyran-2-yl]methanone]",6.88%
18,"COc1cccc(N2CCN(C(=O)[C@H]3OC(O)[C@H](O)[C@@H](O)[C@@H]3O)CC2)c1 (stereo partly drawn) [Example 38, [4-(3-Methoxyphenyl)piperazin-1-yl]-[(2S,3S,4S,5R)-3,4,5,6-tetrahydroxytetrahydropyran-2-yl]methanone]",12.7%
19,"COc1ccccc1N1CCN(C(=O)[C@H]2OC(O)[C@H](O)[C@@H](O)[C@@H]2O)CC1 (stereo partly drawn) [Example 39, [4-(2-Methoxyphenyl)piperazin-1-yl]-[(2S,3S,4S,5R)-3,4,5,6-tetrahydroxytetrahydropyran-2-yl]methanone]",11%
20,"O=C([C@H]1OC(O)[C@H](O)[C@@H](O)[C@@H]1O)N1CCN(Cc2ccc3c(c2)OCO3)CC1 (stereo partly drawn) [Example 40, [4-(1,3-Benzodioxol-5-ylmethyl)piperazin-1-yl]-[(2S,3S,4S,5R)-3,4,5,6-tetrahydroxytetrahydropyran-2-yl]methanone]",10.1%
21,"CC(=O)O[C@@H]1OC(CN2CCN(c3ccccc3)CC2)=C[C@H](OC(C)=O)[C@H]1OC(C)=O [Example 45, [(2S,3R,4S)-2,3-Diacetoxy-6-[(4-phenylpiperazin-1-yl)methyl]-3,4-dihydro-2H-pyran-4-yl] acetate]",29.3%
22,"CC(=O)O[C@@H]1OC(CN2CCN(C/C=C/c3ccccc3)CC2)=C[C@H](OC(C)=O)[C@H]1OC(C)=O [Example 46, [(2S,3R,4S)-2,3-Diacetoxy-6-[[4-[(E)-cinnamyl]piperazin-1-yl]methyl]-3,4-dihydro-2H-pyran-4-yl] acetate]",8.76%
23,"CC(=O)O[C@@H]1OC(CN2CCN(Cc3ccc4c(c3)OCO4)CC2)=C[C@H](OC(C)=O)[C@H]1OC(C)=O [Example 47, [(2S,3R,4S)-2,3-Diacetoxy-6-[[4-(1,3-benzodioxol-5-ylmethyl)piperazin-1-yl]methyl]-3,4-dihydro-2H-pyran-4-yl] acetate]",13.8%
24,"CC(=O)O[C@@H]1OC(CN2CCN(c3ccc(Cl)cc3)CC2)=C[C@H](OC(C)=O)[C@H]1OC(C)=O [Example 48, [(2S,3R,4S)-2,3-Diacetoxy-6-[[4-(4-chlorophenyl)piperazin-1-yl]methyl]-3,4-dihydro-2H-pyran-4-yl] acetate]",28.8%
25,"CC(=O)O[C@@H]1OC(CN2CCN(c3ccccc3Cl)CC2)=C[C@H](OC(C)=O)[C@H]1OC(C)=O [Example 49, [(2S,3R,4S)-2,3-Diacetoxy-6-[[4-(2-chlorophenyl)piperazin-1-yl]methyl]-3,4-dihydro-2H-pyran-4-yl] acetate]",19.9%
26,"COc1ccc(N2CCN(CC3=C[C@H](OC(C)=O)[C@@H](OC(C)=O)[C@H](OC(C)=O)O3)CC2)cc1 [Example 50, [(2S,3R,4S)-2,3-Diacetoxy-6-[[4-(4-methoxyphenyl)piperazin-1-yl]methyl]-3,4-dihydro-2H-pyran-4-yl] acetate]",13.8%
27,"COc1cccc(N2CCN(CC3=C[C@H](OC(C)=O)[C@@H](OC(C)=O)[C@H](OC(C)=O)O3)CC2)c1 [Example 51, [(2S,3R,4S)-2,3-Diacetoxy-6-[[4-(3-methoxyphenyl)piperazin-1-yl]methyl]-3,4-dihydro-2H-pyran-4-yl] acetate]",17.9%
28,"COc1ccccc1N1CCN(CC2=C[C@H](OC(C)=O)[C@@H](OC(C)=O)[C@H](OC(C)=O)O2)CC1 [Example 52, [(2S,3R,4S)-2,3-Diacetoxy-6-[[4-(2-methoxyphenyl)piperazin-1-yl]methyl]-3,4-dihydro-2H-pyran-4-yl] acetate]",14.6%
29,"CC(=O)O[C@@H]1OC(CN2CCN(c3ccc(Br)cc3)CC2)=C[C@H](OC(C)=O)[C@H]1OC(C)=O [Example 53, [(2S,3R,4S)-2,3-Diacetoxy-6-[[4-(4-bromophenyl)piperazin-1-yl]methyl]-3,4-dihydro-2H-pyran-4-yl] acetate]",23.9%
30,"CN(C)c1cccc2c(S(=O)(=O)NCc3cn([C@H]4C(O)O[C@H](CO)[C@@H](O)[C@@H]4O)nn3)cccc12 (stereo partly drawn) [Example 54, 5-(Dimethylamino)-N-[[1-[(3R,4R,5S,6R)-2,4,5-trihydroxy-6-(hydroxymethyl)tetrahydropyran-3-yl]triazol-4-yl]methyl]naphthalene-1-sulfonamide]",10.5%
